Active and inactive are the calls of the source.
Columns and labels:
Paired box protein Pax-8 = Paired box protein Pax-8 (Homo sapiens, UniProt Q06710); assay: inhibitors of PAX8-driven TPO luciferase reporter, dose response, RMG-I cells, cherry-pick (AID 687027); type: functional, cell-based;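 also: luciferase reporter driven by Pax8 target thyroperoxidase promoter measured by SteadyGlo luminescence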
[1] = NIH:OVCAR-3 ovarian cancer cell cytotoxicity, dose response, PAX8 inhibitor project, plate reader, dry powder samples (AID 743044); type: functional, cell-based
[2] = IGROV1 ovarian cancer cell cytotoxicity, dose response, PAX8 inhibitor project, plate reader, dry powder samples (AID 743043); type: functional, cell-based; settings: IGROV-1
[3] = Luminescence Cell-Based Dose Retest to Confirm Inhibitors of Cancer Stem Cells. [Related pubchem assays (depositor defined):AID2717, AID2721]; type: functional; settings: Homo sapiens
[4] = AlphaScreen signal interference compounds, dose response, artefact control for ARNT-TACC3 interaction inhibitor project, biochemical, luminescence, cherry-pick (AID 651705); type: functional;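 also: AlphaScreen bead proximity signal that flags compounds interfering with the detection technology; potency reflects signal decrease which marks the compound as an assay artifact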
[5] = inhibitors of control Renilla luciferase reporter, dose response, counter-screen for Shn3 3'UTR targeting project, Clone20-Shn3RL cells, dual-Glo, cherry-pick, set 2 (AID 720724); type: functional, cell-based; settings: Dual-Go Shn3RL
[6] = control 3'UTR Renilla luciferase suppression, dose response, counter-screen for Shn3 inhibitor project, cell-based, Clone20-Shn3RL, cherry-picked (AID 624133); type: functional
[7] = reduction of Shn3 3'UTR firefly luciferase signal, dose response, Schnurri-3 inhibitor project, cell-based, Clone20 osteoblasts, cherry-pick, set 2 (AID 720490); type: functional;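 also: actives lower the luminescence signal as inhibitors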
[8] = HepG2 cell cytotoxicity, dose response, cytotoxicity control for Shn3 inhibitor project, CellTiter-Glo, cherry-picked (AID 624134); type: functional, cell-based
[9] = Shn3 3'UTR reporter inhibitors, dose response, cell-based, Clone20 osteoblasts, firefly luciferase, cherry-picked (AID 624132); type: functional;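 also: firefly luciferase luminescence from reporter carrying the Shn3 3'UTR in osteoblasts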
[10] = target: T1, Oxysterols receptor LXR-beta (Homo sapiens, UniProt P55055); type: functional, cell-based
T1 sequence (P55055 whole entry): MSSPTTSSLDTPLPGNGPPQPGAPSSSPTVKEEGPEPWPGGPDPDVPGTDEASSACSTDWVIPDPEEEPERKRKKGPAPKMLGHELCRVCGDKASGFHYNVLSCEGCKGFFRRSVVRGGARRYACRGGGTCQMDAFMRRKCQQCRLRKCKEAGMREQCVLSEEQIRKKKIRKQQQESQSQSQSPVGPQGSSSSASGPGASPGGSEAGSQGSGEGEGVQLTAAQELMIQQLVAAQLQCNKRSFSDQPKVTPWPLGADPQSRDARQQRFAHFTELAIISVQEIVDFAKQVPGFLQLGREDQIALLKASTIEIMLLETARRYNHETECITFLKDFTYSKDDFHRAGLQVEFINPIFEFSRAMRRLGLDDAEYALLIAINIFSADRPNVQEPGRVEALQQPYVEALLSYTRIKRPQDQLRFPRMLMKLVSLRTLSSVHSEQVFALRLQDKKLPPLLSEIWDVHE

[11] = target: T1, Oxysterols receptor LXR-beta; type: functional, cell-based; remark: listed apart in the source
[12] = inhibitors of HIV Env-driven cell fusion, dose response, cherry-pick (AID 652057); type: functional, cell-based
Interleukin-8 = Interleukin-8 (Homo sapiens, UniProt P10145); assay: Dose Response confirmation of uHTS small molecule hits for cystic fibrosis induced NFkb Inhibitors in a PAF-induced IL8 counterscreen.; type: functional; settings: read-out: IC50_Mean
HEK293 = assay: inhibitors of LMP1-driven NF-kB reporter, dose response, cell-based, HEK293, luciferase, cherry-pick (AID 588343); type: functional; settings: Homo sapiens
[13] = inhibitors of clade B AD8 Env fusion, dose response, cell-based, cherry-pick (AID 652062); type: functional;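 also: luciferase signal from cell-cell fusion driven by HIV-1 clade B AD8 Env; potency is for inhibitors of fusion seen as a drop in luminescence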
[14] = inhibitors of SNCA 5'UTR-driven reporter translation, confirmation, H4 neuroglioma cells, luminescence (AID 1988); type: functional, cell-based
[15] = ZM109 Env clade C HIV-1 fusion inhibitors, dose response, HeLa effector, CEM target cells, luciferase, cherry-pick (AID 652058); type: functional, cell-based
[16] = off-target signal loss in HeLa-CEM21 co-culture – HeLa F-luc CTL cells, cherry-picked, counter-screen for HIV-1 Env fusion inhibitor project, dose response (AID 652040); type: functional, cell-based;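 also: potency for signal decrease marking cytotoxic or nonspecific inhibition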
[17] = Luminescence Cell-Based Dose Response HTS to Identify Inhibitors of 5'UTR Stem-Loop Driven Prion Protein mRNA Translation in H4 Neuroglioblastoma Cells. [Related pubchem assays: 1827 (Project Summary), 1813 (Primary HTS)]; type: functional
Phospholipase A2 = Phospholipase A2 (Homo sapiens, UniProt P04054); type: functional;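 also: confirmatory dose-response counterscreen on phospholipase A2, testing hits that came from an ultra-high-throughput screen for ATG4B inhibitors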
Cysteine protease ATG4B = target: T2, Cysteine protease ATG4B (Homo sapiens, UniProt Q9Y4P1); type: functional;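 also: Fluorescence-based dose-response confirmation assay measuring inhibition of ATG4B activity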
T2 sequence (Q9Y4P1 whole entry): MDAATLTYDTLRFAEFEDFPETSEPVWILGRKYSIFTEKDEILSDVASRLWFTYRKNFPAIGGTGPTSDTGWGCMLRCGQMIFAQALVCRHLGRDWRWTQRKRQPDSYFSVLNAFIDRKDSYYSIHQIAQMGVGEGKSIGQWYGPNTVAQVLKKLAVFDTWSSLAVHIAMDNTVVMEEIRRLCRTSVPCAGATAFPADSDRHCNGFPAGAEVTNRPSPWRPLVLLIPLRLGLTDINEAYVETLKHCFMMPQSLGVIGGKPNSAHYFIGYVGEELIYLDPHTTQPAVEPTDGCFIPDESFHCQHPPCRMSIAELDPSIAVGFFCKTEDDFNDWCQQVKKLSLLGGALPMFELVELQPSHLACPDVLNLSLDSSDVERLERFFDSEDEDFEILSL

[18] = inhibitors of firefly luciferase expression or activity, dose response, H4 neuroglioma cells, luminescence (AID 1990); type: functional, cell-based
[19] = target: COUP transcription factor 2 (Homo sapiens, UniProt P24468); assay: Luminescence-based cell-based high throughput dose response assay to identify inhibitors of COUP-TFII (NR2F2).; type: functional;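 also: HEK293 cells transiently cotransfected with COUP-TFII expression vector and reporter; luciferase reporter luminescence driven by COUP-TFII from the pX2-168 reporter plasmid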
[20] = test system: Streptococcus sp. 'group A'; assay: growth inhibition of control SK(-) GAS strain, dose response, counter-screen for streptokinase expression inhibitor project, luminescence, kanamycin, BacTiterGlo, confirmation (AID 1900); type: functional, organism-based
INS1 = assay: beta cell apoptosis inhibitors, cytokine rescue, dose response, luminescence, retest (AID 449756); type: functional, cell-based; settings: Rattus norvegicus;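 also: cell death triggered by IL-1 beta plus TNF-alpha plus IFN-gamma mixture; protective hits raise ATP signal compared with cytokine alone wells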
Streptococcus = assay: Group A Streptococcus viability loss, dose response, counter-screen for streptokinase expression inhibitor project, luminescence, BacTiterGlo (AID 1915); type: functional, organism-based;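 also: potency for reduction of bacterial viability or growth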
[21] = target: G-protein coupled receptor 183 (Homo sapiens, UniProt P32249); assay: SAR confirmation of small molecule antagonists of the EBI2 receptor via a luminescent beta-arrestin assa.; type: functional
[22] = Fluorescence-based cell-based high throughput dose response assay for inhibitors of the interaction of nucleotide-binding oligomerization domain containing 2 (NOD2) and the receptor-interacting serine-threonine kinase 2 (RIPK2).; type: functional; settings: Homo sapiens
Beta Lactamase = Beta Lactamase (Pseudomonas aeruginosa, UniProt Q932Y6); assay: beta-lactamase reporter inhibitor potency, dose response, artefact control for NOD2-RIPK2 interaction inhibitor project, BLA reporter cells, FRET fluorescence (AID 651552); type: functional, cell-based
[23] = cytotoxicity toward Colo320 cells – cell-based, CellTiter-Glo luminescence, IC50, dose response (AID 1117334); type: functional; settings: COLO 320
[24] = HeLa 2N DNA content increase, dose response, cell-based, IC50 (AID 1117349); type: functional
[25] = cytotoxicity toward HCT116 cells – cell-based, CellTiter-Glo luminescence, IC50, dose response (AID 1117332); type: functional; settings: HCT-116
[26] = CellTiter-Glo luminescent dose response of DLD-1 viability loss (AID 1117352); type: functional
[27] = Concentration-dependent survival of SW480 colon cancer line, luminescence detection with CellTiter-Glo, half-maximal inhibitory concentration (AID 1117338); type: functional
[28] = cytotoxicity toward HT-29 cells – cell-based, CellTiter-Glo luminescence, IC50, dose response (AID 1117330); type: functional
[29] = HCT116 cell viability decrease, GSK3B pretreatment – CellTiter-Glo, IC50, dose response (AID 1117339); type: functional; settings: HCT-116
[30] = HeLa 4N DNA content increase, dose response, cell-based, IC50 (AID 1117351); type: functional
[31] = RKO cell viability reduction, dose response, CellTiter-Glo luminescence (AID 1117322); type: functional

Chain of Interleukin-8 (P10145 whole entry): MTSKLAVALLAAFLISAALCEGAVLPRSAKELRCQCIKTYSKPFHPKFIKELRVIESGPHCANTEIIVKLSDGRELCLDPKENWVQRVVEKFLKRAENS
Chain of Phospholipase A2 (P04054 whole entry): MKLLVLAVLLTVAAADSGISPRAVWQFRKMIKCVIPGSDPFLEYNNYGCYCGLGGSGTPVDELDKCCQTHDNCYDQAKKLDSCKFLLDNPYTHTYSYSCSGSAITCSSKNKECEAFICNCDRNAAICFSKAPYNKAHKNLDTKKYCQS
Chain of Paired box protein Pax-8 (Q06710 whole entry): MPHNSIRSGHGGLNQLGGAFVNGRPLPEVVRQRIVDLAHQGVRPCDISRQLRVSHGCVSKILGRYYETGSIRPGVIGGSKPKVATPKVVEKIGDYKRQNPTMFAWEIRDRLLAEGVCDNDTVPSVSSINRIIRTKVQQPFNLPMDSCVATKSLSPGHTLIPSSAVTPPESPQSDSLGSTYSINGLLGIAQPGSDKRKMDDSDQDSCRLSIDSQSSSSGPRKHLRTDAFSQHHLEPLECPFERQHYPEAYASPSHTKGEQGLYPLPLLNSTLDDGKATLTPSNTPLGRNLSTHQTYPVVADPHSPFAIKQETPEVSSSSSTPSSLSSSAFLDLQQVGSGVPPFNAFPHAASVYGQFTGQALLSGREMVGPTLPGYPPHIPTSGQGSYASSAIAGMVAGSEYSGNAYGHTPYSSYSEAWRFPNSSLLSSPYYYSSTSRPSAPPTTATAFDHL
Chain of COUP transcription factor 2 (P24468 whole entry): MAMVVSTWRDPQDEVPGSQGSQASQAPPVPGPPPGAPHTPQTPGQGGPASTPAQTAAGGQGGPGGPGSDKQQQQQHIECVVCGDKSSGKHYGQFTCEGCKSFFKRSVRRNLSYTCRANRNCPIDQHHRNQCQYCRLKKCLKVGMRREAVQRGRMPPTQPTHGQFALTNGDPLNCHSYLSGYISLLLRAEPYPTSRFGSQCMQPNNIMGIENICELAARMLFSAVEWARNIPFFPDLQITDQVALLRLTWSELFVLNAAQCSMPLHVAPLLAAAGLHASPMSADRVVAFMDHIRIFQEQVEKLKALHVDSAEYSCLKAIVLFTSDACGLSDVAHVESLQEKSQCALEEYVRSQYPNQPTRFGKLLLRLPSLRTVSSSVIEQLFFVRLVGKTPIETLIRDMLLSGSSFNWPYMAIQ
Chain of Beta Lactamase (Q932Y6 whole entry): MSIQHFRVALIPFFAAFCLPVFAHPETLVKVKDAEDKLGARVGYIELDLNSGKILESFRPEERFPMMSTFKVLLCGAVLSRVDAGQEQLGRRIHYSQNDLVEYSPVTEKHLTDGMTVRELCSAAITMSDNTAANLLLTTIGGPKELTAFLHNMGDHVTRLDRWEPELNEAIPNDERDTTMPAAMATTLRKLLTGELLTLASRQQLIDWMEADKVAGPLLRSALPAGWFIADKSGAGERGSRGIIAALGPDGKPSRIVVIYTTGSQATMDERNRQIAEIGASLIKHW
Chain of G-protein coupled receptor 183 (P32249 whole entry, the tested form may be a part): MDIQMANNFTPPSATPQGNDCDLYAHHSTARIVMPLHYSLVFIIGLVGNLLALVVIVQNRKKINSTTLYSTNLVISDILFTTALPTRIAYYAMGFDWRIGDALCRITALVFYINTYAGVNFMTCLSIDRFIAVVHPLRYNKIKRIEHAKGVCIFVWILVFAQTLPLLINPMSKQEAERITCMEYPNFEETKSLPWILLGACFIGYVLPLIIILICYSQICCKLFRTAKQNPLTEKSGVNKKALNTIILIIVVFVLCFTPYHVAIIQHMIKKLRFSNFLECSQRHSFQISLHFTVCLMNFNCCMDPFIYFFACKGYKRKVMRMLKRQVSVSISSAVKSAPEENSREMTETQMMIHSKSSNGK

Cc1ccc(S(=O)(=O)Nc2ccc3c(c2)C(=O)N([C@H](C)CO)C[C@@H](C)[C@@H](CN(C)Cc2ccc(C(F)(F)F)cc2)OCCCC[C@H](C)O3)cc1
AC50 (Paired box protein Pax-8): 4.18 µM (active)
AC50 [1]: 18.1 µM (active)
AC50 [2]: 43.5 µM (active)

O=C(NC12CC3CC(CC(C3)C1)C2)c1ccc(-c2ccccc2Cl)o1
AC50 [3]: 3.35 µM (active)
AC50 [4]: 80.2 µM (active)

CC(C)c1nc(SCC(=O)Nc2cccc(C(F)(F)F)c2)c2c(=O)n(C)c(=O)n(C)c2n1
AC50 [5]: 3.53 µM (active)
AC50 [6]: 13.2 µM (active)
AC50 [7]: 2.54 µM (active)
AC50 [8]: > 70 µM (inactive)
AC50 [9]: 2.7 µM (active)

O=[N+]([O-])c1cccc(/N=C/C=C(\O)c2cccs2)c1
EC50 (cells): > 67.5 µM (inactive)
EC50 [10]: > 67.5 µM (inactive)

Cc1ccc(Nc2ncccc2C(N)=O)cc1[N+](=O)[O-]
EC50 [11]: > 67.6 µM (inactive)

Cc1cc2nc(-c3cccnc3SCC(=O)NCc3ccco3)[nH]c2cc1C
EC50 [11]: > 67.6 µM (inactive)

NC(=O)c1sc2nc3c(c(-c4ccccc4)c2c1N)CCC3
AC50 [12]: 1.87 µM (active)
IC50 (Interleukin-8): 15.3 µM (inactive)
AC50 (HEK293): 14.6 µM (active)
AC50 [13]: 1.55 µM (active)
EC50 [14]: 16.6 µM (active)
AC50 [15]: 0.736 µM (active)
AC50 [16]: 10.2 µM (active)
EC50 [17]: 6.39 µM (active)
IC50 (Phospholipase A2): 8.38 µM (active)
IC50 (Cysteine protease ATG4B): 12.3 µM (active)
EC50 [18]: 25.6 µM (active)

CCOC(=O)c1cnc(-n2nc(C)cc2C)nc1NC1CCCC1
IC50 [19]: 7.91 µM (active)
EC50 [20]: 2.69 µM (active)
AC50 [6]: 7.1 µM (active)
AC50 (INS1): 2.73 µM (active)
AC50 [8]: 8.6 µM (active)
AC50 [9]: 4.4 µM (active)
EC50 (Streptococcus): 5.64 µM (active)

COc1cccc2c(SCC(=O)N/N=C/c3ccccc3)cc(C)nc12
IC50 (Interleukin-8): 11.3 µM (inactive)

O=C(/C=C/c1ccc(Cl)c(Cl)c1)N1CCN(Cc2ccc(Cl)cc2)CC1
IC50 [21]: 0.0143 µM (active)

O=C1N/C(=C/c2ccc(N3CCOCC3)o2)C(=O)N1c1cccc(Cl)c1
IC50 [22]: 7.65 µM (active)
IC50 (Beta Lactamase): 21.3 µM (inactive)

COc1cc(NCc2ccc3nc(N)nc(N)c3c2C)cc(OC)c1OC
IC50 [23]: 0.386 µM (active)
IC50 [24]: > 10 µM (inactive)
IC50 [25]: 0.0231 µM (active)
IC50 [26]: 0.195 µM (active)
IC50 [27]: 0.0591 µM (active)
IC50 [28]: 0.0212 µM (active)
IC50 [29]: 0.00392 µM (active)
IC50 [30]: > 10 µM (inactive)
IC50 [31]: 0.00272 µM (active)
